Results from PMC9969764 (ChemMedChem, 2021).

What was measured:
RET kinase = RET kinase (Homo sapiens, UniProt P07949); assay: RET kinase biochemical assay; settings: read-out: RET (IC50), mean of at least n = 3
A549 cells = assay: Cell viability, cytotoxic control; assay type: cell-based; settings: read-out: A549 (EC50)
KM-12 cells = assay: Cell viability, TRKA-driven matched control; assay type: cell-based; settings: read-out: KM-12 (EC50)
TRKA = TRKA (Homo sapiens, UniProt P04629); assay: TRKA kinase biochemical assay; settings: read-out: TRKA (IC50), mean of at least n = 3
[1] = test system: LC-2/ad cells (RET-CCDC6 fusion-driven NSCLC); assay: Cell viability, RET-driven cell line; assay type: cell-based; settings: read-out: LC-2/ad (EC50)

Chain of RET kinase (P07949 29-1114): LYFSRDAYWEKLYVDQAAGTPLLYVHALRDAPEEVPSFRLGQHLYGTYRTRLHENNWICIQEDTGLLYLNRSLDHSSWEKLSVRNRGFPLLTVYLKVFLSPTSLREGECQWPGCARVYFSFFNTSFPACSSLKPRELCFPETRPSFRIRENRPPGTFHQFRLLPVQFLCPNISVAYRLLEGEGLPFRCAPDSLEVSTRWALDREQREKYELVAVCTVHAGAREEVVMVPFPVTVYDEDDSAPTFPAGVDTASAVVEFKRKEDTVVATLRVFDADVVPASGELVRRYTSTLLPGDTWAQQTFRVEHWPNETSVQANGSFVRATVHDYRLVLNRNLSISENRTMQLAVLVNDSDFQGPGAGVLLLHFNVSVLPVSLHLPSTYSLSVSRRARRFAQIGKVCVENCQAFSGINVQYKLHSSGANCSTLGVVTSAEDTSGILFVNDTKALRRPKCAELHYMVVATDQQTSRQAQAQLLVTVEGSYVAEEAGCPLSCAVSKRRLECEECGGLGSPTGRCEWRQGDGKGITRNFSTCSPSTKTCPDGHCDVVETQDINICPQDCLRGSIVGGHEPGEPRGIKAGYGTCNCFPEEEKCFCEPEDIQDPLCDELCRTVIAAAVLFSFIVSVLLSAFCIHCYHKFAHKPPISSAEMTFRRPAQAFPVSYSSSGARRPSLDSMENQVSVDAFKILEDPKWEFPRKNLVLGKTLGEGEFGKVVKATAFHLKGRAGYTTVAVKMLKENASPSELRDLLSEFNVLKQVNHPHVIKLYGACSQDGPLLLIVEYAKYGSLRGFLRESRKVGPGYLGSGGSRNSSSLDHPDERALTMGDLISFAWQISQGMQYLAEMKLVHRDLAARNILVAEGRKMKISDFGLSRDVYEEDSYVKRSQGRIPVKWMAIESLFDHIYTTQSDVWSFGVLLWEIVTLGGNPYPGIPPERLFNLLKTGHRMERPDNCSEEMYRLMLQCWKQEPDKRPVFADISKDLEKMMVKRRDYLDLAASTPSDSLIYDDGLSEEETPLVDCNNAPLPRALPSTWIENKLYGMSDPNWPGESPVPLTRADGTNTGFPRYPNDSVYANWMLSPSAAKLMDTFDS
Chain of TRKA (P04629 33-796): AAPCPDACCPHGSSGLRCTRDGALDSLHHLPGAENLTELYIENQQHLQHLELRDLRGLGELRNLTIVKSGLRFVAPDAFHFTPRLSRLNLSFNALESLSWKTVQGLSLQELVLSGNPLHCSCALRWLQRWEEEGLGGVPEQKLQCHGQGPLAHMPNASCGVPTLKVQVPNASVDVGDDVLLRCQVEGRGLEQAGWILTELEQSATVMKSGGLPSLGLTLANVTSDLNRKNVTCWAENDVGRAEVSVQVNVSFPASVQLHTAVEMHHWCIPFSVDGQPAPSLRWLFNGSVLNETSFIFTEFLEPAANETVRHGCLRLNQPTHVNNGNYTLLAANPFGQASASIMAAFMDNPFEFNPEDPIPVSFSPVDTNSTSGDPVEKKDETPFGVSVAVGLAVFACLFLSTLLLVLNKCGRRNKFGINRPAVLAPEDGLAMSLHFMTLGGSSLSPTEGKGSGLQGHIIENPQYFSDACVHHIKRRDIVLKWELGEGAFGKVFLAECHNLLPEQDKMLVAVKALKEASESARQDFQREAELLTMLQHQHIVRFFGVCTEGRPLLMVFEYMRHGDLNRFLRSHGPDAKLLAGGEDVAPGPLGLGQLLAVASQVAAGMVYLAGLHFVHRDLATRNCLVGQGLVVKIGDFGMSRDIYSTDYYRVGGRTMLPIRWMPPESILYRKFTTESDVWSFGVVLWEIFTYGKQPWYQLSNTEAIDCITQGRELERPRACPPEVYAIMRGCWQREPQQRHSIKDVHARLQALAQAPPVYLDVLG

Row | IC50 (RET kinase) [µM] | IC50 (TRKA) [µM] | Structure (SMILES) | EC50 (A549 cells) [µM] | EC50 (KM-12 cells) [µM] | EC50 [1] [µM]
1 | 6.82 ± 2.22 | – | Cn1nc(-c2ccccc2)c2c(N)ncnc21 [4a] | – | – | –
2 | 9.2 | 57.1 | Nc1ncnc2[nH]ncc12 [fragment 1, pyrazoloadenine] | 3.02 | 1.73 | 1.47
